Reference: article PMC8401265, “Evolutionary Diversification of Host-Targeted Bartonella Effectors Proteins Derived from a Conserved FicTA Toxin-Antitoxin Module” (Microorganisms, 2021)

Target: T1, Btr_BepC FIC (Bartonella tribocorum, UniProt A9IWP7)
T1 construct: gene bepC
Assay: X-ray crystallography
Assay type: binding
Settings: active site; pH 6.5 crystals; lysine K150 contacts alpha-phosphate

T1 sequence (A9IWP7 entry or part of it): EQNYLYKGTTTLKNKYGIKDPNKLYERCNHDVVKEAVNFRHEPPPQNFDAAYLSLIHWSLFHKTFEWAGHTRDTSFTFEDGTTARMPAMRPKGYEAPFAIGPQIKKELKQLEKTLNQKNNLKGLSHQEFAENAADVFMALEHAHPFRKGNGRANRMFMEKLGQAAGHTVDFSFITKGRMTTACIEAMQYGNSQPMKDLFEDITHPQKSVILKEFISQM

## Nc1ncnc2c1ncn2[C@@H]1O[C@H](COP(=O)(O)OP(=O)(O)NP(=O)(O)O)[C@@H](O)[C@H]1O [AMPPNP]
  X-ray crystallography: the complex of Btr_BepC with AMPPNP (Figure 9A) demonstrates competent tri-phosphate nucleotide binding
